In PubChem BioAssay (NCI):
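These data come from cells grown in 96-well plates and exposed to compound for 48 hours at five concentrations. GI50 is the concentration that inhibits growth by half. TGI: concentration producing complete growth inhibition.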

Key:
Experiment in all cases: NCI anticancer screen, dose series, 48 h
786-0 renal = system: 786-0 renal
A498 renal = system: A498 renal
A549 NSCLC = system: A549 NSCLC
ACHN renal = system: ACHN renal
BT-549 breast = system: BT-549 breast
CAKI-1 renal = system: CAKI-1 renal
CCRF-CEM leukemia = system: CCRF-CEM leukemia
COLO 205 colon = system: COLO 205 colon
DU-145 prostate = system: DU-145 prostate
EKVX NSCLC = system: EKVX NSCLC
HCC-2998 colon = system: HCC-2998 colon
HCT-116 colon = system: HCT-116 colon
HCT-15 colon = system: HCT-15 colon
HL-60(TB) leukemia = system: HL-60(TB) leukemia
HOP-62 NSCLC = system: HOP-62 NSCLC
HOP-92 NSCLC = system: HOP-92 NSCLC
HT29 colon = system: HT29 colon
IGROV1 ovarian = system: IGROV1 ovarian
K-562 leukemia = system: K-562 leukemia
KM12 colon = system: KM12 colon
LOX IMVI melanoma = system: LOX IMVI melanoma
M14 melanoma = system: M14 melanoma
MALME-3M melanoma = system: MALME-3M melanoma
MCF7 breast = system: MCF7 breast
MDA-MB-231 breast = system: MDA-MB-231 breast
MDA-MB-435 = system: MDA-MB-435
MOLT-4 leukemia = system: MOLT-4 leukemia
NCI-H226 lung = system: NCI-H226 lung
NCI-H23 lung = system: NCI-H23 lung
NCI-H460 lung = system: NCI-H460 lung
NCI-H522 lung = system: NCI-H522 lung
NCI/ADR-RES ovarian = system: NCI/ADR-RES ovarian
OVCAR-3 ovarian = system: OVCAR-3 ovarian
OVCAR-4 ovarian = system: OVCAR-4 ovarian
OVCAR-8 ovarian = system: OVCAR-8 ovarian
PC-3 prostate = system: PC-3 prostate
RPMI-8226 leukemia = system: RPMI-8226 leukemia
RXF 393 renal = system: RXF 393 renal
SF-268 CNS = system: SF-268 CNS
SF-295 CNS = system: SF-295 CNS
SF-539 CNS = system: SF-539 CNS
SK-MEL-2 melanoma = system: SK-MEL-2 melanoma
SK-MEL-5 melanoma = system: SK-MEL-5 melanoma
SK-OV-3 ovarian = system: SK-OV-3 ovarian
SN12C renal = system: SN12C renal
SNB-19 CNS = system: SNB-19 CNS
SNB-75 CNS = system: SNB-75 CNS
SR leukemia = system: SR leukemia
SW-620 colon = system: SW-620 colon
T-47D breast = system: T-47D breast
TK-10 renal = system: TK-10 renal
U251 CNS = system: U251 CNS
UACC-257 melanoma = system: UACC-257 melanoma
UACC-62 melanoma = system: UACC-62 melanoma
UO-31 renal = system: UO-31 renal

## Nc1ccccc1NC(=O)c1ccc(CN2CCC/C(=C\c3ccccn3)C2=O)cc1
786-0 renal
  GI50: 2710 nM
  TGI: 30200 nM
A498 renal
  GI50: 1090 nM
  TGI: 3470 nM
A549 NSCLC
  GI50: 2410 nM
  TGI: > 100000 nM
ACHN renal
  GI50: 1260 nM
  TGI: > 100000 nM
BT-549 breast
  GI50: 3200 nM
  TGI: > 100000 nM
CAKI-1 renal
  GI50: 1410 nM
  TGI: 9190 nM
CCRF-CEM leukemia
  GI50: 645 nM
  TGI: > 100000 nM
COLO 205 colon
  GI50: 1150 nM
  TGI: 3900 nM
DU-145 prostate
  GI50: 3150 nM
  TGI: > 100000 nM
EKVX NSCLC
  GI50: 3750 nM
  TGI: > 100000 nM
HCC-2998 colon
  GI50: 1860 nM
  TGI: 20200 nM
HCT-116 colon
  GI50: 381 nM
  TGI: > 100000 nM
HCT-15 colon
  GI50: 1110 nM
  TGI: > 100000 nM
HL-60(TB) leukemia
  GI50: 467 nM
  TGI: 6480 nM
HOP-62 NSCLC
  GI50: 2500 nM
  TGI: > 100000 nM
HOP-92 NSCLC
  GI50: 143 nM
  TGI: 2980 nM
HT29 colon
  GI50: 443 nM
  TGI: > 100000 nM
IGROV1 ovarian
  GI50: 1100 nM
  TGI: > 100000 nM
K-562 leukemia
  GI50: 414 nM
  TGI: > 100000 nM
KM12 colon
  GI50: 1530 nM
  TGI: > 100000 nM
LOX IMVI melanoma
  GI50: 696 nM
  TGI: 3070 nM
M14 melanoma
  GI50: 1050 nM
  TGI: > 100000 nM
MALME-3M melanoma
  GI50: 1010 nM
  TGI: > 100000 nM
MCF7 breast
  GI50: 797 nM
  TGI: > 100000 nM
MDA-MB-231 breast
  GI50: 4040 nM
  TGI: > 100000 nM
MDA-MB-435
  GI50: 357 nM
  TGI: 1770 nM
MOLT-4 leukemia
  GI50: 1260 nM
  TGI: > 100000 nM
NCI-H226 lung
  GI50: 2620 nM
  TGI: 9590 nM
NCI-H23 lung
  GI50: 2110 nM
  TGI: > 100000 nM
NCI-H460 lung
  GI50: 1650 nM
  TGI: > 100000 nM
NCI-H522 lung
  GI50: 510 nM
  TGI: 3760 nM
NCI/ADR-RES ovarian
  GI50: 1330 nM
  TGI: > 100000 nM
OVCAR-3 ovarian
  GI50: 2370 nM
  TGI: > 100000 nM
OVCAR-4 ovarian
  GI50: 2660 nM
  TGI: > 100000 nM
OVCAR-8 ovarian
  GI50: 878 nM
  TGI: > 100000 nM
PC-3 prostate
  GI50: 1330 nM
  TGI: > 100000 nM
RPMI-8226 leukemia
  GI50: 686 nM
  TGI: 5660 nM
RXF 393 renal
  GI50: 755 nM
  TGI: 3480 nM
SF-268 CNS
  GI50: 2960 nM
  TGI: 13000 nM
SF-295 CNS
  GI50: 1920 nM
  TGI: 11700 nM
SF-539 CNS
  GI50: 1580 nM
  TGI: > 100000 nM
SK-MEL-2 melanoma
  GI50: 1570 nM
  TGI: 11800 nM
SK-MEL-5 melanoma
  GI50: 1460 nM
  TGI: 3790 nM
SK-OV-3 ovarian
  GI50: 1930 nM
  TGI: > 100000 nM
SN12C renal
  GI50: 2590 nM
  TGI: > 100000 nM
SNB-19 CNS
  GI50: 3160 nM
  TGI: > 100000 nM
SNB-75 CNS
  GI50: 1060 nM
  TGI: 6050 nM
SR leukemia
  GI50: 470 nM
  TGI: > 100000 nM
SW-620 colon
  GI50: 745 nM
  TGI: > 100000 nM
T-47D breast
  GI50: 806 nM
  TGI: 9590 nM
TK-10 renal
  GI50: 107 nM
  TGI: 4180 nM
U251 CNS
  GI50: 1830 nM
  TGI: > 100000 nM
UACC-257 melanoma
  GI50: 1150 nM
  TGI: 14800 nM
UACC-62 melanoma
  GI50: 411 nM
  TGI: 2350 nM
UO-31 renal
  GI50: 1240 nM
  TGI: 15900 nM
